From ChEMBL document CHEMBL1156829 (Proc Natl Acad Sci U S A, 2008)
pEC50: −log10 of the molar value.

Key:
Plasmodium falciparum [1] = assay: NOVARTIS: Inhibition of Plasmodium falciparum 3D7 (drug-susceptible) proliferation in erythrocyte-based infection assay; type: functional, organism-based; conditions: Plasmodium falciparum, 3D7
Plasmodium falciparum [2] = assay: NOVARTIS: Inhibition of Plasmodium falciparum W2 (drug-resistant) proliferation in erythrocyte-based infection assay; type: functional, organism-based; conditions: Plasmodium falciparum, W2; read-out: EC50
[3] = NOVARTIS: Cytotoxicity against human hepatocellular carcinoma cell line (Huh7); type: toxicity, cell-based, Huh-7; conditions: Huh7 cells (hepatocellular carcinoma cell line)

Structure (SMILES) | pEC50 (Plasmodium falciparum [1]) | pEC50 (Plasmodium falciparum [2]) | CC50 [3]
CC=C[C@H]1O[C@@](O)([C@H](C)C(O)C(C)[C@@H]2OC(=O)C(OC)=CC(C)=C[C@H](C)[C@H](O)[C@H](CC)[C@H](O)C(C)CC(C)=CC=C[C@H]2OC)C[C@@H](O[C@@H]2C[C@H](O)[C@@H](OC(N)=O)[C@H](C)O2)[C@@H]1C (some centres undefined) | < 6.30 | > 7.73 | > 10000 nM
CC(=NNC(=O)/C(=C\c1ccc([N+](=O)[O-])cc1)NC(=O)c1ccccc1)c1ccccn1 | 6.46 | 6.77 | > 100000 nM
COc1ccc(/C=C2/SC(=Nc3ccccc3OC)NC2=O)cc1 | 7.08 | 7.42 | 19800 nM
FC(F)(F)c1cccc(C=NNc2nc3ccccc3[nH]2)c1 | 7.02 | 6.94 | 63200 nM
O=C(CN1CCN(C(=O)c2ccco2)CC1)Nc1ccccc1Br | 6.45 | 6.73 | > 100000 nM
C=CC1CC23CC(C(OC(=O)CCC(=O)O)c4ccnc5ccc(OC)cc45)N2CCC13 (centres undefined) | 7.85 | 7.11 | 45700 nM
N=c1c2c(n(Cc3ccccc3Cl)c3c1CCC3)CCCC2 | 6.65 | 6.76 | > 100000 nM
Cc1ccc(Cn2c(SCc3ccc(C(=O)NCCc4ccccc4)cc3)nc3ccncc32)cc1 | 6.15 | 6.76 | > 100000 nM
COc1cccc(-c2ccc(O)c(CN3CCC(C)CC3)c2)n1 | 6.47 | 6.89 | 75000 nM
CN(Cc1cc(-c2ccccc2)ccc1O)CC(O)c1ccccc1 (centres undefined) | 6.36 | 7.74 | > 10000 nM
Cc1ccc(Cn2c(N3CCC(C(=O)NCc4ccccn4)CC3)nc3ccccc32)cc1 | 6.32 | 6.73 | > 100000 nM
FC(F)(F)c1ccccc1NC(=S)N1CCCN(c2nc3ccc(Cl)cc3s2)CC1 | 6.92 | 6.84 | 77800 nM
Cc1ccc(C)c(Oc2c(C(F)(F)F)oc3c(CN4CCN(C)CC4)c(O)ccc3c2=O)c1 | 6.08 | 6.73 | > 100000 nM
CCOC(=O)c1c(CNCCN(CC)CC)n(C)c2cc(Br)c(O)cc12 | 6.29 | 6.73 | > 100000 nM
N#Cc1c(N)nc(C(Cl)(Cl)Cl)nc1-c1ccccc1 | 6.30 | 6.74 | > 100000 nM
CCOC(=O)C1=C(C)NC2=C(C(=O)CC(C)(C)C2)C1c1ccc(Cl)cc1Cl (centres undefined) | 6.55 | 6.92 | 66000 nM
COc1cc(NC(C)CCCN(Cc2ccc(F)cc2)C(=O)C(C)(C)CCl)c2ncccc2c1 (centres undefined) | 6.33 | > 8.46 | > 1830 nM
COc1ccc2[nH]c(SCC(=O)Nc3cccc(NC(=O)CSc4nc5cc(OC)ccc5[nH]4)n3)nc2c1 | 6.91 | 7.02 | > 51000 nM
CC(C)CCN1C(=O)N(CCN(C)C)C(=O)C12CCN(Cc1ccc(O)cc1)CC2 | 6.13 | 6.91 | 68400 nM
CCCOc1ccc(C2Sc3ccccc3N=C3C2=C(O)c2ccccc23)cc1OC (centres undefined) | 6.32 | 6.75 | > 100000 nM
CCN(CC)C(=O)CSc1nnc(-c2ccccn2)n1-c1ccc(OC)cc1 | 5.89 | > 8.25 | 3190 nM
Oc1ccc(-c2ccnc3cc(Cl)ccc23)cc1CNCC1(O)CCCCC1 | 5.99 | > 7.62 | > 13700 nM
CCCCN(CC)CCNC(=O)C1c2ccccc2C(=O)N(Cc2ccc(F)cc2)C1c1ccc(OC)cc1 (centres undefined) | 5.64 | 6.71 | > 100000 nM
Oc1ccc(-c2cccnc2)cc1CNC1C2CC3CC(C2)CC1C3 (centres undefined) | 6.34 | 6.71 | > 100000 nM
O=C(COc1ccc(Cl)cc1)Nc1nnc(-c2ccc3c(c2)OCO3)s1 | < 5.90 | 7.57 | > 13800 nM
COc1ccc(OC)c(-c2ccc(O)c(CNCC3CC4C=CC3C43CC3)c2)c1 (centres undefined) | 6.46 | 7.40 | 20600 nM
CCc1nn(-c2ccccc2)c2nc(-c3cc(Br)ccc3O)c3cc(OC)c(OC)cc3c12 | 6.33 | 6.72 | > 100000 nM

Structure (SMILES) | pEC50 (Plasmodium falciparum [1]) | pEC50 (Plasmodium falciparum [2]) | CC50 [3]
Cc1ccccc1NC(=O)N1CCN(C(=O)c2nc(-c3ccccc3)nc(C)c2C(=O)OC(C)C)CC1C (centres undefined) | 6.87 | 7.00 | 51900 nM
CCCCNC(=O)N1CCN(C(=O)C(Cc2c[nH]c3ccccc23)NC(=O)Nc2cccc(C#N)c2)CC1C (centres undefined) | 6.81 | 6.72 | > 100000 nM
COc1cccc(C2C(C(=O)Nc3ccc(C)cc3C)=C(C)Nc3c(C(=O)Nc4ccccc4)cnn32)c1 (centres undefined) | 6.23 | 6.72 | > 100000 nM
CCOC(=O)C1=C(C)NC2=C(C(=O)CC(c3ccc(OC)cc3)C2)C1c1cccs1 (centres undefined) | 6.08 | 6.72 | > 100000 nM
COc1ccc(OC)c(-c2ccc(O)c(CN(C)CC(O)c3ccccc3)c2)c1 (centres undefined) | 6.61 | 6.91 | 66300 nM
CCc1c(C)nc2cc(-c3cc(OC)cc(OC)c3)nn2c1NCCCn1ccnc1 | 5.54 | 6.73 | > 100000 nM
CCN(C(=O)CSc1nc(-c2ccc(C(C)C)cc2)no1)c1cccc(C)c1 | 6.45 | 6.74 | > 100000 nM
Cc1cc(C)n(N=Cc2ccc(Cl)cc2)c(=O)c1C#N | 5.97 | 6.74 | > 100000 nM
COC(=O)C1=C(C)NC2=C(C(=O)CC(c3ccc(OC)c(OC)c3)C2)C1c1ccc(Br)cc1 (centres undefined) | 6.35 | 6.74 | > 100000 nM
FC(F)(F)c1cccc(NC(=S)N2CCCC2c2ccccc2Cl)c1 (centres undefined) | 6.73 | 6.73 | > 100000 nM
COc1ccc(CN2CCOc3ccc(C(C)(O)CN(C)C)cc3C2)cc1C (centres undefined) | 6.08 | 6.71 | > 100000 nM
Cc1ccc(NC(=O)C2c3ccccc3C(=O)N(CC(C)C)C2c2cccs2)c(Cl)c1 (centres undefined) | 6.52 | 6.72 | > 100000 nM
CC[n+]1c(SC)ccc2cc(OC)ccc21 | 7.03 | 6.73 | > 100000 nM
Cc1ccn2c(NC(C)(C)CC(C)(C)C)c(-c3ccccc3OC(=O)CCc3ccccc3)nc2c1 | 6.07 | 7.73 | > 10000 nM
OC(CN1CCN(C/C=C/c2ccccc2)CC1)Cn1c2ccc(Br)cc2c2cc(Br)ccc21 (centres undefined) | 6.23 | 7.72 | > 10000 nM
Clc1ccc2c(N3CCCC3)ccnc2c1 | 6.55 | 6.91 | 64500 nM
COc1ccc(C2Sc3ccccc3N=C3C2=C(O)c2ccccc23)cc1 (centres undefined) | 6.62 | 6.76 | > 100000 nM
CC(C)C(=O)NCCCCNc1ccnc2cc(Cl)ccc12 | 5.80 | > 7.73 | > 10000 nM
Nc1ccc(N2CCCCCC2)cc1 | 6.82 | 6.74 | > 100000 nM
O=C(c1ccc(N2CC3CC(C2)c2cccc(=O)n2C3)c(NS(=O)(=O)c2ccc3c(c2)OCCO3)c1)N1CCN(c2ccccn2)CC1 (centres undefined) | 5.70 | 6.71 | > 100000 nM
CC(C)(C)c1ccc2c(c1)CN(C1CCCCC1)CO2 | 7.00 | 7.43 | 20800 nM
CCN1c2ccccc2N(C)C1(C)c1ccccc1 (centres undefined) | 7.33 | 7.31 | 28800 nM
COc1ccc(-[n+]2cc(-c3ccc(Br)cc3)n3c2SCCC3)cc1 | 6.22 | 6.77 | > 100000 nM
Fc1cc(F)c(C2SCCN2C(=S)Nc2cccc(C(F)(F)F)c2)c(F)c1 (centres undefined) | 6.56 | 6.73 | > 100000 nM
N#Cc1c2c(c(N3CCN(CCO)CC3)n3c1nc1ccccc13)CCC2 | 6.68 | 6.75 | > 100000 nM
Cc1ccn2c(NC(C)(C)CC(C)(C)C)c(-c3ccccc3OC(=O)C3CCCCC3)nc2c1 | 6.18 | 7.73 | > 10000 nM
